Where “and” joins values, the source holds several entries; their conditions need not be identical. Equal values may be shown once. Residues, ends and D or L forms follow the SMILES beside them. *: point of attachment. NHPh = c1ccc(N*)cc1
System: C57BL/6 mice
Assay: Capsaicin-induced mechanical hypersensitivity (von Frey)
Type: in vivo, mouse
Parameters: LVF Mean / HVF Mean / MECHANICAL LVF / MECHANICAL HVF: unit not given here
Text: FGF13 is a neuronal gene ubiquitously transcribed in DRG neuronal subtypes ([43]–[46]). To investigate neuronal subtype enrichment of the FGF13 transcript, we examined a gene panel including FGF13, SCN9A, and several marker genes in mouse single-cell transcriptomic data (Supplemental Figure 10) ([43]–[46]). […] Critically, putative silent nociceptors marked by somatostatin (SST), and the nicotinic cholinergic receptor α-3 subunit (CHRNA3) contribute to development of inflammatory mechanical hyperalgesia ([47]). […] We next determined if PW164 modulation of the FGF13/Nav1.7 complex could suppress nociceptive behaviors in WT mice. We tested whether intraplantar (i.pl.) injection (5 μL) of PW164 altered hind paw withdrawal in response to low or high intensity von Frey filament (LVF or HVF, respectively) mechanical stimulation (Figure 3A). […] Next, we evaluated PW164’s effect on mechanical and thermal hindpaw sensitivity in capsaicin-induced nociceptive hypersensitivity models. […] Next, we performed in vivo target validation in WT mice that received an intrathecal (i.t.) injection in L5 of AAV2-shFGF13 (6 μL, viral titers 1 × 10^12 vector genomes (vg)/mL); a control group received an equal number of AAV2-shCTRL particles (Figure 3C).
Experiments were performed on 6- to 12-week-old male C57BL/6 mice (The Jackson Laboratory, Bar Harbor, ME) housed in the AAALAC-accredited facility at the University of Texas Medical Branch. Mice were group-housed with up to 5 mice per cage on a 12-to-12-hour light–dark cycle and had access to water and food ad libitum. All protocols were approved by the Institutional Animal Care and Use Committee (IACUC) at the University of Texas Medical Branch and in accordance with the National Institutes of Health (NIH) guidelines.
PW164 and ZL192 were dissolved in DMSO and saline in a ratio of 1:10. 0.1% capsaicin (10% ethanol, 10% Tween-20 in saline; Sigma-Aldrich). All the compounds were injected at the center of the hind paw. The control group received a DMSO-saline mixture. […]
Bupivacaine was prepared from a 1:2 dilution with sterile 0.9% saline and locally injected in the center of the paw at 7 mg/ml.
AAV2 viral particles packaged by the University of North Carolina Gene Therapy Core Facility (viral titer ranging […]
Before intrathecal injections in the lumbar region, mice were maintained in an anesthetizing box with 2% isoflurane to induce unconsciousness. Six microliters of viral vector were gently injected into the CSF through a 30-gauge needle with a Hamilton syringe in the lumbar area between vertebrae L4 and L5 by gently gripping the iliac crest of the mouse and inserting the needle with an angle of 45°. The correct procedure was confirmed by the mouse’s tail reflexiv e flick.
Assessment of mechanical sensitivity
Mechanical sensitivity was assessed using von Frey filaments (VFF 0.1g and 1.0 g force) in mice that were either naïve or received intraplantar (i.p.) injection of capsaicin. VFFs were applied at the injection site (capsaicin or […]

[1] = Zl 0192 .06mg/ml 5ul site 2 i.d(after cap 0.5h ), Male GFP mouse site 1, hour 0
[2] = Zl 0192 .06mg/ml 5ul site 2 i.d(after cap 0.5h ), Male GFP mouse site 1, hour 0.5
[3] = Zl 0192 .06mg/ml 5ul site 2 i.d(after cap 0.5h ), Male GFP mouse site 1, hour 1
[4] = Zl 0192 .06mg/ml 5ul site 2 i.d(after cap 0.5h ), Male GFP mouse site 1, hour 1.5
[5] = Zl 0192 .06mg/ml 5ul site 2 i.d(after cap 0.5h ), Male GFP mouse site 1, hour 2
[6] = Zl 0192 .06mg/ml 5ul site 2 i.d(after cap 0.5h ), Male GFP mouse site 1, hour 3
[7] = Zl 0192 .06mg/ml 5ul site 2 i.d(after cap 0.5h ), Male GFP mouse site 2, hour 0
[8] = Zl 0192 .06mg/ml 5ul site 2 i.d(after cap 0.5h ), Male GFP mouse site 2, hour 0.5
[9] = Zl 0192 .06mg/ml 5ul site 2 i.d(after cap 0.5h ), Male GFP mouse site 2, hour 1
[10] = Zl 0192 .06mg/ml 5ul site 2 i.d(after cap 0.5h ), Male GFP mouse site 2, hour 1.5
[11] = Zl 0192 .06mg/ml 5ul site 2 i.d(after cap 0.5h ), Male GFP mouse site 2, hour 2
[12] = Zl 0192 .06mg/ml 5ul site 2 i.d(after cap 0.5h ), Male GFP mouse site 2, hour 3
[13] = Zl 0192 .06mg/ml 5ul site 2 i.d., Male GFP mouse site 1, hour 0
[14] = Zl 0192 .06mg/ml 5ul site 2 i.d., Male GFP mouse site 1, hour 0.5
[15] = Zl 0192 .06mg/ml 5ul site 2 i.d., Male GFP mouse site 1, hour 1
[16] = Zl 0192 .06mg/ml 5ul site 2 i.d., Male GFP mouse site 1, hour 1.5
[17] = Zl 0192 .06mg/ml 5ul site 2 i.d., Male GFP mouse site 1, hour 2
[18] = Zl 0192 .06mg/ml 5ul site 2 i.d., Male GFP mouse site 1, hour 3
[19] = Zl 0192 .06mg/ml 5ul site 2 i.d., Male GFP mouse site 2, hour 0
[20] = Zl 0192 .06mg/ml 5ul site 2 i.d., Male GFP mouse site 2, hour 0.5
[21] = Zl 0192 .06mg/ml 5ul site 2 i.d., Male GFP mouse site 2, hour 1
[22] = Zl 0192 .06mg/ml 5ul site 2 i.d., Male GFP mouse site 2, hour 1.5
[23] = Zl 0192 .06mg/ml 5ul site 2 i.d., Male GFP mouse site 2, hour 2
[24] = Zl 0192 .06mg/ml 5ul site 2 i.d., Male GFP mouse site 2, hour 3
[25] = Zl 0192 .18mg/ml 5ul site 2 i.d(after cap 0.5h ), Male GFP mouse site 1, hour 0
[26] = Zl 0192 .18mg/ml 5ul site 2 i.d(after cap 0.5h ), Male GFP mouse site 1, hour 0.5
[27] = Zl 0192 .18mg/ml 5ul site 2 i.d(after cap 0.5h ), Male GFP mouse site 1, hour 1
[28] = Zl 0192 .18mg/ml 5ul site 2 i.d(after cap 0.5h ), Male GFP mouse site 1, hour 1.5
[29] = Zl 0192 .18mg/ml 5ul site 2 i.d(after cap 0.5h ), Male GFP mouse site 1, hour 2
[30] = Zl 0192 .18mg/ml 5ul site 2 i.d(after cap 0.5h ), Male GFP mouse site 1, hour 3
[31] = Zl 0192 .18mg/ml 5ul site 2 i.d(after cap 0.5h ), Male GFP mouse site 2, hour 0
[32] = Zl 0192 .18mg/ml 5ul site 2 i.d(after cap 0.5h ), Male GFP mouse site 2, hour 0.5
[33] = Zl 0192 .18mg/ml 5ul site 2 i.d(after cap 0.5h ), Male GFP mouse site 2, hour 1
[34] = Zl 0192 .18mg/ml 5ul site 2 i.d(after cap 0.5h ), Male GFP mouse site 2, hour 1.5
[35] = Zl 0192 .18mg/ml 5ul site 2 i.d(after cap 0.5h ), Male GFP mouse site 2, hour 2
[36] = Zl 0192 .18mg/ml 5ul site 2 i.d(after cap 0.5h ), Male GFP mouse site 2, hour 3
[37] = Zl 0192 .18mg/ml 5ul site 2 i.d., Male GFP mouse site 1, hour 0
[38] = Zl 0192 .18mg/ml 5ul site 2 i.d., Male GFP mouse site 1, hour 0.5
[39] = Zl 0192 .18mg/ml 5ul site 2 i.d., Male GFP mouse site 1, hour 1
[40] = Zl 0192 .18mg/ml 5ul site 2 i.d., Male GFP mouse site 1, hour 1.5
[41] = Zl 0192 .18mg/ml 5ul site 2 i.d., Male GFP mouse site 1, hour 2
[42] = Zl 0192 .18mg/ml 5ul site 2 i.d., Male GFP mouse site 1, hour 3
[43] = Zl 0192 .18mg/ml 5ul site 2 i.d., Male GFP mouse site 2, hour 0
[44] = Zl 0192 .18mg/ml 5ul site 2 i.d., Male GFP mouse site 2, hour 0.5
[45] = Zl 0192 .18mg/ml 5ul site 2 i.d., Male GFP mouse site 2, hour 1
[46] = Zl 0192 .18mg/ml 5ul site 2 i.d., Male GFP mouse site 2, hour 1.5
[47] = Zl 0192 .18mg/ml 5ul site 2 i.d., Male GFP mouse site 2, hour 2
[48] = Zl 0192 .18mg/ml 5ul site 2 i.d., Male GFP mouse site 2, hour 3

CC(=O)N[C@@H](Cc1ccccc1)C(=O)N[C@@H](CC(C)C)C(=O)N1CCC[C@H]1C(=O)N[C@@H](CCCCN)C(=O)Nc1ccccc1 [Zl 0192] (Ac-FLPK-NHPh)
MECHANICAL HVF [1]: 50 | MECHANICAL LVF [1]: 0 | MECHANICAL HVF [2]: 100 | MECHANICAL LVF [2]: 70 | MECHANICAL HVF [3]: 100 | MECHANICAL LVF [3]: 70 | MECHANICAL HVF [4]: 100 | MECHANICAL LVF [4]: 80 | MECHANICAL HVF [5]: 100 | MECHANICAL LVF [5]: 80 and 70 | MECHANICAL HVF [6]: 100 | MECHANICAL LVF [6]: 80 and 70 | MECHANICAL HVF [7]: 50 | MECHANICAL LVF [7]: 0 | MECHANICAL HVF [8]: 100 | MECHANICAL LVF [8]: 50 and 60 | MECHANICAL HVF [9]: 100 | MECHANICAL LVF [9]: 60 | MECHANICAL HVF [10]: 100 | MECHANICAL LVF [10]: 60 and 70 | MECHANICAL HVF [11]: 100 | MECHANICAL LVF [11]: 70 and 60 | MECHANICAL HVF [12]: 100 | MECHANICAL LVF [12]: 30 and 40 | MECHANICAL HVF [13]: 50 | MECHANICAL LVF [13]: 0 | MECHANICAL HVF [14]: 100 | MECHANICAL LVF [14]: 40 and 70 | MECHANICAL HVF [15]: 100 | MECHANICAL LVF [15]: 70 and 80 | MECHANICAL HVF [16]: 100 | MECHANICAL LVF [16]: 80 and 70 | MECHANICAL HVF [17]: 80 and 90 | MECHANICAL LVF [17]: 50 | MECHANICAL HVF [18]: 80 | MECHANICAL LVF [18]: 20 and 30 | MECHANICAL HVF [19]: 50 | MECHANICAL LVF [19]: 0 | MECHANICAL HVF [20]: 100 | MECHANICAL LVF [20]: 40 and 60 | MECHANICAL HVF [21]: 100 | MECHANICAL LVF [21]: 70 | MECHANICAL HVF [22]: 90 and 70 | MECHANICAL LVF [22]: 60 and 50 | MECHANICAL HVF [23]: 80 and 70 | MECHANICAL LVF [23]: 30 and 40 | MECHANICAL HVF [24]: 80 and 50 | MECHANICAL LVF [24]: 20 and 10 | MECHANICAL HVF [25]: 60 and 50 | MECHANICAL LVF [25]: 0 | MECHANICAL HVF [26]: 100 | MECHANICAL LVF [26]: 70 and 60 | MECHANICAL HVF [27]: 100 | MECHANICAL LVF [27]: 70 and 60 | MECHANICAL HVF [28]: 100 | MECHANICAL LVF [28]: 80 and 90 | MECHANICAL HVF [29]: 100 | MECHANICAL LVF [29]: 80 and 90 | MECHANICAL HVF [30]: 100 | MECHANICAL LVF [30]: 90 and 80 | MECHANICAL HVF [31]: 50 | MECHANICAL LVF [31]: 0 | MECHANICAL HVF [32]: 100 | MECHANICAL LVF [32]: 60 and 70 | MECHANICAL HVF [33]: 100 | MECHANICAL LVF [33]: 60 | MECHANICAL HVF [34]: 100 | MECHANICAL LVF [34]: 60 and 70 | MECHANICAL HVF [35]: 100 | MECHANICAL LVF [35]: 70 and 60 | MECHANICAL HVF [36]: 100 | MECHANICAL LVF [36]: 70 | MECHANICAL HVF [37]: 50 | MECHANICAL LVF [37]: 0 | MECHANICAL HVF [38]: 100 | MECHANICAL LVF [38]: 40 and 50 | MECHANICAL HVF [39]: 100 | MECHANICAL LVF [39]: 80 | MECHANICAL HVF [40]: 100 | MECHANICAL LVF [40]: 70 | MECHANICAL HVF [41]: 100 | MECHANICAL LVF [41]: 70 and 60 | MECHANICAL HVF [42]: 100 | MECHANICAL LVF [42]: 60 | MECHANICAL HVF [43]: 50 | MECHANICAL LVF [43]: 0 | MECHANICAL HVF [44]: 100 | MECHANICAL LVF [44]: 60 and 50 | MECHANICAL HVF [45]: 100 | MECHANICAL LVF [45]: 70 and 60 | MECHANICAL HVF [46]: 100 | MECHANICAL LVF [46]: 60 | MECHANICAL HVF [47]: 100 | MECHANICAL LVF [47]: 70 | MECHANICAL HVF [48]: 100 | MECHANICAL LVF [48]: 50

Reference: paper PMC12259270, “Sensory neuron–expressed FGF13 controls nociceptive signaling in diabetic neuropathy models” (The Journal of Clinical Investigation, 2025)
